Results reported in patent US20060029548A1, “Methods of diagnosing, monitoring and treating pulmonary diseases” (priority 2004, published 2006).
Where “and” joins values, the source holds several entries; their conditions need not be identical. Equal values may be shown once.

Legend:
[1] = system: pulmonary vagal afferent C fibers (P2X3/P2X2/3-receptors); assay: Perfused nerve-lung preparation: action potentials in C fibers; assay type: cell-based, guinea pig; conditions: C fibers, 30 min, α,βmATP 10 uM 1 ml bolus
Description: (§1) The method for the extracellular recording of the activity of vagal sensory neurons projecting to guinea pig lungs -has been described in detail previously in Canning et al. [(2004) J. Physiol. 557:543-545], which is incorporated herein by reference in its entirety. Briefly, male Hartley guinea pigs (100-200 g) were killed with CO2 inhalation and exsanguination. The blood from the pulmonary circulation was washed out by in situ perfusion with Krebs' bicarbonate solution (KBS; comprised of 118 mM NaCl, 5.4 mM KCl, 1.0 mM NaH2PO4, 1.2 mM MgSO4, 1.9 mM CaCl2, 25.0 mM NaHCO3, 11.1 mM dextrose, and gassed with 95% O2-5% CO2 at pH7.4). The KBS contained 3 uM indomethacin to reduce the indirect influence of tissue prostanoids on sensory fiber activity. Trachea and right lungs, having intact right-side extrinsic vagal innervation by the inclusion, e.g., of right jugular and nodose ganglia, were dissected from the exsanguinated guinea pigs and placed in a two-compartment tissue bath. The right nodose and jugular ganglia, along with the rostral vagus nerve, were placed into one compartment of the tissue bath whereas the lung and trachea were placed into the second compartment of the tissue bath. The two compartments were separately superfused with KBS (6 ml min^−1, at 37° C.).
(§2) The pulmonary artery and trachea were cannulated with polyethylene (PE) tubing and continuously perfused with KBS (4 ml min^−1 and 2 ml min^−1, respectively). […]
(§3) Once a mechanosensitive receptive field was identified, a brief [<1 millisecond (ms)] electrical stimulus was delivered by a small concentric electrode that was positioned over a discrete region of the mechanosensitive receptive field to determine the conduction velocity of the fiber. […] Conduction velocity was calculated by dividing the distance along the nerve pathway by the time between the shock artifact and the action potential evoked by electrical stimulation of the mechanosensitive receptive field. […]

[2] = system: pulmonary vagal afferent A fibers (P2X3/P2X2/3-receptors); assay: Perfused nerve-lung preparation: action potentials in A fibers; assay type: cell-based, guinea pig; conditions: A fibers, 30 min, α,βmATP 10 uM 1 ml bolus
Description: as §1, §2, §3

vagal C fiber = assay: Vagal activation experiments in dogs: action potentials in vagal C fibers; assay type: in vivo; conditions: anesthetized dog, rapid bolus; simultaneous recording with RAR-containing fiber
Description: (§4) The experiments described in Example 5 were performed essentially as described in Pelleg et al. [(1996) J. Physiol. 490(1):265-275] and U.S. Pat. No. 5,874,420, both of which are incorporated herein by reference in their entirety. In brief, they were performed on anesthetized (sodium pentobarbitone, 30 mg kg^−1 plus 3 mg kg^−1 h^−1, intravenous) dogs artificially ventilated with room air using a respirator. Arterial blood pH, PO2, PCO2, body temperature were maintained as described in U.S. Pat. No. 5,874,420. A peripheral vein was cannulated for the administration of physiological saline solution and maintenance doses of anesthetic. Catheters were introduced via the femoral vein and left atrial appendage and positioned in the right atrium and left atrium for the administration of test solutions. The chest was opened by a longitudinal sternotomy. The right cervical vagosympathetic trunk was exposed by a midcervical longitudinal section of the skin and careful dissection of neck muscles and connective tissues. The edges of the cut skin were elevated and secured to create a trough which was filled with warm (about 37° C.) mineral oil. A section of the vagosympathetic trunk was placed on a small plate of black Perspex™ and fine branches were separated from the main bundle by careful dissection using microsurgical tools and a dissecting microscope (Model F212, Jenopik Jena, GmbH, Germany).
Extracellular neural action potentials were recorded using a custom-made bipolar electrode that contained two platinum-iridium wires (1.25 cm×0.0125 cm) connected to a high-impedence first-stage differential amplifier (model AC8331, CW, Inc., Ardmore, Pa.) via a shielded cable. The output of the first-stage amplifier was fed into a second-stage differential amplifier (model BMA-831/C, CWE, Inc.). Isolated fibers were laid on the pair of platinum-iridium wires. Vagal C fibers with chemosensitive endings have a sparse irregular discharge which is not associated with cardiac or respiratory cycles. […]
ATP (3 umole kg^−1) and capsaicin (10 ug kg^−1) were administered as a rapid bolus into the right atrium (5 ml test solution+5 ml physiological saline flush). α,βmATP and β,γmATP were given as one low dose only (0.75 umol kg^−1) to avoid systemic side effects. […] To exclude involvement of baroreceptors in the recorded neural activity, the latter was monitored before and after a bolus of nitroglycerine (1 mg; intravenous). […]

[3] = system: pulmonary RAR-containing afferent nerve fiber; assay: Vagal activation experiments in dogs: action potentials in RAR-containing fibers; assay type: in vivo; conditions: anesthetized dog, rapid bolus; ATP 6 μmol/kg, capsaicin 10 ug kg−1, analogs 0.75 umol kg−1
Description: as §4
Extracellular neural action potentials were recorded using a custom-made bipolar electrode that contained two platinum-iridium wires (1.25 cm×0.0125 cm) connected to a high-impedence first-stage differential amplifier (model AC8331, CW, Inc., Ardmore, Pa.) via a shielded cable. The output of the first-stage amplifier was fed into a second-stage differential amplifier (model BMA-831/C, CWE, Inc.). Isolated fibers were laid on the pair of platinum-iridium wires. Vagal C fibers with chemosensitive endings have a sparse irregular discharge which is not associated with cardiac or respiratory cycles. Confirmation of fiber type was obtained by: first monitoring the response to capsaicin (10 microg kg^−1, intra-right atrial bolus); second, monitoring the response to mechanical stimulation of the lungs using gentle probing with forceps as well as inflation of the lungs to 2-3 times the tidal volume; and third, determining the speed of conduction using a stimulating electrode positioned distal to the initial recording site. Nerve fibers with RAR on their pulmonary endings, spontaneously fire a brief (i.e., short lasting) volley of action potentials associated with peak tracheal pressure during each respiratory cycle.
[…] Volume controls consisted of either 5 ml+5 ml or 1 ml+3 ml physiological saline. All injections were performed in the same mode by the same person. To exclude involvement of baroreceptors in the recorded neural activity, the latter was monitored before and after a bolus of nitroglycerine (1 mg; intravenous).
The procedure described in Example 1 was used to measure action potentials in dog pulmonary fibers with RAR on their terminals following administration of various agents. RAR activation generated a brief volley of action potentials associated with each respiratory cycle that was seen before as well as after administration of ATP (FIG. 7). […] Thus ATP modified the activity of the RAR-containing fiber manifested in their transient loss of the rapid adaptability characteristic.

[4] = system: human subjects (airway responsiveness, FEV1); assay: Inhalation challenge test: airway responsiveness measured as change in FEV1 (PD20); assay type: in vivo; conditions: for PD20 geometric mean: non-responders excluded; for PD20: individual subjects
Description: (§5) The clinical study described in Examples 2-4 was randomized, double blind, crossover, and controlled. Each subject attended the laboratory on three occasions. Procedures on the initial screening visit included obtaining information about the study and a number of investigations in the following order: medical history, lung function, reversibility and skin prick testing. At visit 2 and 3, separated by 2-7 days, the subjects were subjected to either an ATP or AMP challenge in a randomized fashion such that, by the end of the study, each patient had been tested with both compounds. Before, immediately after, and 30 minutes after the challenge, lung function and Borg score for dyspnoea were determined, and symptoms other than dyspnoea were recorded.
In the clinical study described in Examples 2-4, spirometric tests were performed using a dry spirometer (Vitalograph Ltd., Buckingham, England) and the best value of the three expiratory manoeuvers was expressed as liters and percentage of the predicted.
(§6) For the tests described in Examples 2-4, ATP and AMP (Sigma, Gillingham, Dorset, England) were dissolved freshly in normal saline solution to produce a range of doubling concentrations from 0.227-929 umol/ml for ATP and from 0.138-1152 umol/ml for AMP and immediately used for bronchial challenge. The solutions were administered using a breath-activated dosimeter (Mefar, Bovezzo, Italy) with an output of 10 ul per inhalation [Prieto et al. (2003) Chest 123:993-997]. The subjects, while wearing a nose clip, inhaled (via a mouthpiece) five breaths of normal saline, followed by sequential doubling concentrations of either ATP or AMP from functional residual capacity to total lung capacity. FEV1 was measured from two minutes after the fifth inhalation of normal saline until there was a fall in FEV1 of ≧20% of its value recorded after saline inhalation or until maximal concentration of either ATP or AMP was inhaled. The provocative dose causing a 20% decrease in FEV1 (PD20) was calculated by interpolation of the logarithmic dose response curve.
All data from the analyses described in Examples 2-4 were performed with a software package (GraphPad Prism Software, Inc., USA). The significance of differences among groups was assessed by Student's t-test, and analysis of categorical variables was examined by Chi-square test. Pearson's correlation coefficient and linear regression analysis were used to analyze the relationship between the percentage decreases in FEV1 and Borg score. The PD20 values for ATP and AMP were logarithmically transformed to normalize their distribution and presented as geometric means. All other numerical variables were expressed as the mean±SEM and significance was defined as p<0.05.

[5] = system: human subjects (cough, throat irritation, sputum); assay: Symptoms other than dyspnoea recorded after inhalation challenge; assay type: in vivo; conditions: all subjects
Description: as §5, §6

[6] = system: human subjects (perception of dyspnoea); assay: Borg score for dyspnoea before and after inhalation challenge; assay type: in vivo; design: key to ΔBorg (change in Borg score before and after challenge): Borg score after minus before challenge; 0–10 scale
Description: as §5
The modified Borg scale used to quantitate dyspnoea in the clinical study described in Examples 2-4 was a category scale in which words describing degrees of breathlessness were anchored to numbers between 0 and 10. The subjects were asked to select a number whose corresponding words most appropriately described their perception of breathlessness. The change in dyspnoea was expressed as ΔBorg, which was the difference in Borg score before and after the challenge [Rutgers et al. (2000) Eur. Respir. J. 16:486-490; Burdon et al. (1982) Am. Rev. Respir. Dis. 126:825-828]. Terms and associated numbers used in assessing Borg score were as follows: 0, “nothing at all”; 0.5, “very, very slight”; 1, “very slight”; 2, “slight”; 3, “moderate”; 4, “somewhat severe”; 5, “severe”; 7, “very severe”; 9, “very, very severe (almost maximal)”; and 10, “maximal” [Burdon et al. (1982)].
as §6

O=C(O)c1cc(C(=O)O)c(C(=O)N(Cc2cccc(Oc3ccccc3)c2)[C@H]2CCCc3ccccc32)cc1C(=O)O [A-317491, 5-({(3-phenoxybenzyl)[(1S)-1,2,3,4-tetrahydro-1-napththalenyl]amino}carbonyl)-1,2,4-benzenetricarboxylic acid]
inhibition of the action of α,βmATP ([1]; antagonist 1 uM): no inhibitory effect | reduction of response to α,βmATP ([1]; antagonist 10 uM): 62±5% | inhibition of the action of α,βmATP ([2]; antagonist 1 uM): 59±12% | reduction of response to α,βmATP ([2]; antagonist 10 uM): 88±5%

Nc1ncnc2c1ncn2[C@@H]1O[C@H](COP(=O)(O)OP(=O)(O)CP(=O)(O)O)[C@@H](O)[C@H]1O [β,γmATP, β,γ-methylene ATP]
effect on action potentials of C fibers (vagal C fiber): acted similarly to ATP | effect on action potentials of RAR-containing fibers [3]: acted similarly to ATP

Nc1ncnc2c1ncn2[C@@H]1O[C@H](COP(=O)(O)O)[C@@H](O)[C@H]1O [AMP, adenosine 5′-monophosphate]
patients with bronchoconstriction ([4]; 19 smoking subjects (seven healthy smokers, seven smokers at risk, five COPD)): 21% | PD20 geometric mean ([4]; COPD (n = 7)): 210.6 µmol/mL | patients who responded to challenge ([4]; COPD patients): 33% | PD20 geometric mean (range) ([4]; all subjects who had airway responsiveness): 82.9 (0.9-576.0) umol/ml | PD20 geometric mean ([4]; asthma (n = 10)): 113.5 µmol/mL | response to challenge ([4]; healthy non-smokers, no change in FEV1 or reduction of less than 20%): negative | subjects who responded to challenge ([4]; healthy smokers): 14% | PD20 geometric mean ([4]; healthy smokers (n = 7)): 74.6 µmol/mL | PD20 ([4]; COPD (n = 7)): 0.9 μmol/ml and >1152 μmol/ml (4×) and 72.0 μmol/ml and 168.4 μmol/ml | PD20 ([4]; asthma (n = 10)): 576.0 µmol/mL and 3.46 µmol/mL and 54.7 µmol/mL and 559.3 µmol/mL and 461.7 µmol/mL and 176.0 µmol/mL and >1152 µmol/mL and 15.8 µmol/mL and 556.4 µmol/mL and 72.0 µmol/mL | PD20 ([4]; healthy smokers (n = 7)): >1152 μmol/ml (6×) and 74.6 μmol/ml | PD20 ([4]; non-smokers (n = 10), provocative dose causing 20% decrease in FEV1): >1152 µmol/mL | PD20 ([4]; smokers at risk (n = 7)): >1152 μmol/ml (6×) and 576.0 μmol/ml | PD20 geometric mean ([4]; non-smokers (n = 10)): >1152 µmol/mL | subjects responsive to challenge ([4]; of the 40 subjects in the study): 32.5% | patients who responded to challenge ([4]; patients with asthma): 90% | ΔFEV1 (decrease in FEV1 as percentage of baseline FEV1) ([4]; patients with asthma): 22% | subjects who responded to challenge ([4]; smokers at risk): 14% | PD20 geometric mean ([4]; smokers at risk (n = 7)): 576.0 µmol/mL | subjects who coughed after challenge [5]: 48% | subjects who had sputum after challenge [5]: 10% | subjects who had throat irritation after challenge [5]: 53% | ΔBorg (change in Borg score before and after challenge) ([6]; COPD): 0.6 | Borg score after challenge (at PD20) ([6]; COPD patients): 0.8 | Borg score after challenge (at PD20) ([6]; patients with asthma): 2.5 | ΔBorg (change in Borg score before and after challenge) ([6]; patients with asthma): 2.3

COc1cc(CNC(=O)CCCC/C=C/C(C)C)ccc1O [capsaicin]
effect on action potentials of C fibers (vagal C fiber): stimulated only the former | effect on action potentials of RAR-containing fibers [3]: did not alter the firing pattern
